One data set addresses T1, hOT receptor (Homo sapiens, UniProt P30559).
T1 construct: expressed in transfected cells; host or cells: HEK293EBNA
T1 sequence (P30559 1-389): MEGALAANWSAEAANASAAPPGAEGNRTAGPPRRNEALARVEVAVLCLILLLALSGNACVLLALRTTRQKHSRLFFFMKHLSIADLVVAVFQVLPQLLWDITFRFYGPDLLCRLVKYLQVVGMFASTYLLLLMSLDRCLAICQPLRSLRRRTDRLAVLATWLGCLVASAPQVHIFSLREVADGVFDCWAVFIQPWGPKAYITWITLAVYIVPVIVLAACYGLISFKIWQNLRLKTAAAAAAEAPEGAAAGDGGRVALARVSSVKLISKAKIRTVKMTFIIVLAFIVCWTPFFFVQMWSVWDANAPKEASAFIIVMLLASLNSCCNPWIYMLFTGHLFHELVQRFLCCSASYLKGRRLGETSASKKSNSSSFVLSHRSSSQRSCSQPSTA
The data set is described as follows: Functional assay No. 1: inhibition of oxytocin mediated Ca2+-mobilization by FLIPR in HEK293EBNA cells. The settings on record: HEK293EBNA cells expressing hOT receptor, OT 40 nM, fluo-4, FLIPR; read-out: Inhibition of Ca2+ mobiliation, hOT-R IC50. The class given is cell-based. An excerpt:
b) Functional Assay No. 1: Inhibition of Oxytocin Mediated Ca^2+-mobilization by FLIPR® (Fluorimetric Imaging Plate Reader)
The action of OT on the OT-receptor triggers a complex cascade of events in the cell which leads to an increase in the intra-cytoplasmic Ca^2+ concentration. This increase in Ca^2+ concentration results from both calcium release from the sarcoplasmic reticulum (calcium stores) into the cytoplasm and from calcium influx from the extracellular space through Ca^2+ channels. […]
FLIPR® is a fluorimetric imaging device using a laser (Argon-ion laser) for simultaneous illumination and reading (cooled CCD camera) of each well of a 96-well-plate, thus enabling rapid measurements on a large number of samples. […]
The relative fluorescence of Fluo-4 (λex=488 nm, […]) is then measured by the FLIPR in presence or absence of compounds of formula (I). The fluorescence of the marker being sensitive to the amount of Ca^2+, the Ca^2+ movements can be detected. Then, the ability of compounds of formula (I) to antagonize the oxytocin-induced intracellular Ca^2+-mobilization mediated by the oxytocin receptor may be determined.
The activities of the pyrrolidine derivatives according to formula (I) were assessed using the above described in vitro biological assay. […]

For data set [1], the system named is oxytocin-induced uterine contractions in the rat. The data set is described as follows: In vivo model for inhibition of uterine contractions (oxytocin-induced, anaesthetised DES-treated rats). The note with it: intravenous, PEG400/saline 50:50, 5 ml/kg infusion. How it is done: d) In Vivo Model for Inhibtion of Uterine Contractions
The assay evaluates the biological effect of tested compounds in an in vivo model of preterm labor, premature birth.
Non-pregnant Charles River CD (SD) BR female rats (9–10 weeks old, 200–250 g) were treated at 18 and 24 hours before the experiment with 250 μg/kg, i.p. diethylstilbestrol (DES). For the assay, the animal was anaesthetised with urethane (1.75 g/kg, i.p.) and placed on a homeothermic operating table. The trachea was isolated and cannulated with a suitable polyethylene (PE) tubing. A midline incision at the hypogastrium level was made and one uterine horn exposed, its cephalic end cannulated with a PE240 tubing and, after filling the internal cavity with 0.2 ml of sterile physiological saline, connected to a “Gemini” amplifying/recording system via a P23ID Gould Statham pressure transducer.
One jugular vein was isolated, cannulated with a PE60 tubing and connected to a butterfly needle to provide an i.v. route of administration of the test compounds via a dispensing syringe.
In the case of intraduodenal administration of the test compounds, the duodenum can be isolated and similarly cannulated through a small incision in its wall.
One carotid artery was also isolated and cannulated with PE60 catheter and connected to a suitable syringe for blood sample collection.
After a stabilization period and throughout the experiment, the same dose of oxytocin was repeatedly injected intravenously at 30-min intervals. When reproducible contractile responses of the uterus to the same OT stimulus (selected dose of oxytocin) were obtained, the dose of the test compound or of the reference (vehicle) was administered. […]
The contractile response of the uterus to oxytocin was quantified by measuring the intrauterine pressure and the number of contractions. The effect of the reference and test compounds was evaluated by comparing pre- and post-treatment pressure values. […]
The activities of the pyrrolidine derivatives of formula (I) may be assessed using the above described in vivo biological assay. […]

Results on 2 compounds are retold here after patent US7189754B2, “Pyrrolidine ester derivatives with oxytocin modulating activity” (Applied Research Systems ARS Holding NV, priority 2001, dated 2007).

Usually IC50 stands for the concentration at which inhibition is half-maximal. As a reminder, the melting point is the temperature, or range, at which the solid turns liquid.

On to `CO/N=C1\C[C@@H](C(=O)OC)N(C(=O)c2ccc(-c3ccccc3C)cc2)C1` [Methyl (2S,4E)-4-(methoxyimino)-1-[(2′-methyl[1,1′-biphenyl]-4-yl)carbonyl]-2-pyrrolidinecarboxylate], for which the IC50 on hOT receptor worked out at 15 nM.

In turn, `CO/N=C1/C[C@@H](C(=O)OC)N(C(=O)c2ccc(-c3ccccc3C)cc2)C1` [Methyl (2S,4Z)-4-(methoxyimino)-1-[(2′-methyl[1,1′-biphenyl]-4-yl)carbonyl]-2-pyrrolidinecarboxylate] came in with a melting point of 40 °C. Besides, on hOT receptor, the IC50 worked out at 15 nM. In addition, the “% Reduction of Uterine Contraction” value in data set [1] (dose 1 mg/kg) was −35.4 ± 7.0%. Besides, in data set [1] (dose 3 mg/kg), the “% Reduction of Uterine Contraction” value was −49.0 ± 6.5%. The “% Reduction of Uterine Contraction” value in data set [1] (dose 10 mg/kg) is −51.8 ± 9.2%.
